Measured values from US20240148821A1, “PHARMACEUTICAL USE OF CYCLIC PEPTIDE COMPOUND” (CHUGAI SEIYAKU KABUSHIKI KAISHA, priority 2021, published 2024).
Numbered stars: 1 amine (or outer) side, 2 acyl side, 3 side chain; on linkers, the order of the positions; unused ones are H or OH. Bridge positions count the residues as written; N and C are the ends. Square brackets hold non-standard residues; d marks the D form. Peptide text beside a SMILES is read from it. * marks the point of attachment. hPhe(3-Cl-4-CF3) = N[C@@H](CCc1ccc(C(F)(F)F)c(Cl)c1)C(=O)O; hPhe(3-F,4-CF3) = N[C@@H](CCc1ccc(C(F)(F)F)c(F)c1)C(=O)O; Phe(2-F,5-Br) = N[C@@H](Cc1cc(Br)ccc1F)C(=O)O; NMeAbu(4,4,4-F3) = CN[C@@H](CC(F)(F)F)C(=O)O; NMePhe(3-Cl) = CN[C@@H](Cc1cccc(Cl)c1)C(=O)O; NMePhe(4-Cl) = CN[C@@H](Cc1ccc(Cl)cc1)C(=O)O; NMePhe(4-Me) = CN[C@@H](Cc1ccc(C)cc1)C(=O)O; X109 = O=C([C@H](Cc1cccc(I)c1F)N[*:1])[*:2]; hPhe(3-Cl) = N[C@@H](CCc1cccc(Cl)c1)C(=O)O; Phe(3-I) = N[C@@H](Cc1cccc(I)c1)C(=O)O; Pro(4,4-F2) = O=C(O)[C@@H]1CC(F)(F)CN1; NMe3Pal = CN[C@@H](Cc1cccnc1)C(=O)O; NMeY = CN[C@@H](Cc1ccc(O)cc1)C(=O)O; NMeCha = CN[C@@H](CC1CCCCC1)C(=O)O; NMeGly(cPr) = CN[C@H](C(=O)O)C1CC1; NMeChg = CN[C@H](C(=O)O)C1CCCCC1; NMeI = CC[C@H](C)[C@H](NC)C(=O)O; NMeD = CN[C@@H](CC(=O)O)C(=O)O; NMeL = CN[C@@H](CC(C)C)C(=O)O; NMeNva = CCC[C@H](NC)C(=O)O; NMeV = CN[C@H](C(=O)O)C(C)C; Trifluoroethyl = FC(F)(F)C*; d(β3hA) = C[C@@H](N)CC(=O)O; NMeAbu = CC[C@H](NC)C(=O)O; NMeS = CN[C@@H](CO)C(=O)O; Iva = CC[C@](C)(N)C(=O)O; NMeA = CN[C@@H](C)C(=O)O; NMeAib = CNC(C)(C)C(=O)O; Nle = CCCC[C@H](N)C(=O)O; Piperidide = C1CCN(*)CC1; Pra = C#CC[C@H](N)C(=O)O; Pyrrolidide = C1CCN(*)C1; Ac5c = NC1(C(=O)O)CCCC1; Aze = O=C(O)[C@@H]1CCN1; X113 = Fc1cncc(C*)c1; Sar = CNCC(=O)O

Each molecule was assayed on Human pancreatic cancer cell line AsPC-1 (G12D mutation Kras) (assay: AsPC-1 cell growth inhibition (AsPC-1 CGI)). Settings: read-out: AsPC-1 cell growth inhibition, 50% growth inhibitory concentration (IC50 value); 96 hours, CellTiter-Glo, values classified in ranges.
Assay type: cell-based
Description: Test compounds were serially dilated with dimethyl sulfoxide, and 200 nL was then dispensed to a U-bottom 96-well plate using Labcyte Echo. […] The cell suspension was dispensed to a. plate containing a test compound at 100 μL per well and incubated at 37° C. in a 5% carbon dioxide gas incubator. 96 hours later, 80 μL of CellTiter-Glo (Promega) was added to each well and fluorescence was measured.

Compound | IC50
CC[C@H](C)[C@@H]1NC(=O)[C@H](CC(C)C)N(C)C(=O)C[C@@H](C(=O)N2CCCCC2)N(C)C(=O)[C@H](C2CCCCC2)N(C)C(=O)C2(CCCC2)NC(=O)[C@H](COCc2cncc(F)c2)N(C)C(=O)[C@H](CCc2ccc(C(F)(F)F)c(Cl)c2)NC(=O)CN(C)C(=O)[C@H](CC2CCCCC2)N(C)C(=O)CN(C)C(=O)CN(C)C1=O [Compound 950] ([NMeL]I[Sar][Sar][NMeCha][Sar][hPhe(3-Cl-4-CF3)][NMeS](X113)[Ac5c][NMeChg][NMeD]-Piperidide; lactam N-11) | > 500 nM
CCCC[C@@H]1NC(=O)[C@H](Cc2cccc(I)c2F)NC(=O)CN(C)C(=O)[C@H](Cc2ccc(OC)cc2)N(C)C(=O)[C@@H]2CCN2C(=O)[C@H](C)N(C)C(=O)[C@H]([C@@H](C)CC)NC(=O)[C@H](CC)N(C)C(=O)C[C@@H](C(=O)N2CCCCC2)N(C)C(=O)[C@H](CC(C)C)NC(=O)C(C)(C)N(C)C1=O [Compound 1249] ([NMeAbu]I[NMeA][Aze][NMeY](Me)[Sar][X109][Nle][NMeAib]L[NMeD]-Piperidide; lactam N-11) | > 500 nM
CC[C@H](C)[C@@H]1NC(=O)[C@H](CC(C)C)N(C)C(=O)C[C@@H](C(=O)N(C)C)N(C)C(=O)[C@H]([C@@H](C)CC)N(C)C(=O)[C@H](C)NC(=O)[C@@H](C)NC(=O)[C@H](CCc2ccc(C(F)(F)F)c(Cl)c2)NC(=O)CN(C)C(=O)[C@H](Cc2ccc(C)cc2)N(C)C(=O)[C@@H]2CCN2C(=O)[C@H](C)N(C)C1=O [Compound 382] ([NMeL]I[NMeA][Aze][NMePhe(4-Me)][Sar][hPhe(3-Cl-4-CF3)][dA]A[NMeI][NMeD]-NMe2; lactam N-11) | > 500 nM
CCCC[C@@H]1NC(=O)[C@H](Cc2cc(Br)ccc2F)NC(=O)CN(C)C(=O)[C@H](Cc2ccc(OC)cc2)N(C)C(=O)[C@@H]2CCN2C(=O)[C@H](C)N(C)C(=O)[C@H]([C@@H](C)CC)NC(=O)[C@H](CC)N(C)C(=O)C[C@@H](C(=O)N2CCCCC2)N(C)C(=O)[C@H](CC(C)C)NC(=O)C(C)(C)N(C)C1=O [Compound 1177] ([NMeAbu]I[NMeA][Aze][NMeY](Me)[Sar][Phe(2-F,5-Br)][Nle][NMeAib]L[NMeD]-Piperidide; lactam N-11) | > 500 nM
CC[C@H](C)[C@@H]1NC(=O)[C@H](C)N(C)C(=O)C[C@@H](C(=O)N2CCCCC2)N(C)C(=O)[C@H](C2CCCCC2)N(C)C(=O)C2(CCCC2)NC(=O)[C@@H]2CCCN2C(=O)[C@H](CCc2cccc(Cl)c2)NC(=O)CN(C)C(=O)[C@H](CC2CCCCC2)N(C)C(=O)CN(C)C(=O)CN(C)C1=O [Compound 954] ([NMeA]I[Sar][Sar][NMeCha][Sar][hPhe(3-Cl)]P[Ac5c][NMeChg][NMeD]-Piperidide; lactam N-11) | > 500 nM
CC[C@H](C)[C@@H]1NC(=O)[C@H](CC(F)(F)F)N(C)C(=O)C[C@@H](C(=O)N2CCCC2)N(C)C(=O)[C@H](C2CCCCC2)N(C)C(=O)C2(CCCC2)NC(=O)[C@@H]2CC(F)(F)CN2C(=O)[C@H](CCc2ccc(C(F)(F)F)c(Cl)c2)NC(=O)CN(C)C(=O)[C@H](Cc2ccc(C)cc2)N(C)C(=O)CN(C)C(=O)CN(C)C1=O [Compound 1245] ([NMeAbu(4,4,4-F3)]I[Sar][Sar][NMePhe(4-Me)][Sar][hPhe(3-Cl-4-CF3)][Pro(4,4-F2)][Ac5c][NMeChg][NMeD]-Pyrrolidide; lactam N-11) | ≤ 20 nM
CC[C@H](C)[C@@H]1NC(=O)[C@H](CC(C)C)N(C)C(=O)C[C@@H](C(=O)N2CCCCC2)N(C)C(=O)[C@H](C2CC2)N(C)C(=O)C2(CCCC2)NC(=O)[C@@H]2CCCN2C(=O)[C@H](CCc2ccc(C(F)(F)F)c(Cl)c2)NC(=O)CN(C)C(=O)[C@H](CC2CCCCC2)N(C)C(=O)CN(C)C(=O)CN(C)C1=O [Compound 197] ([NMeL]I[Sar][Sar][NMeCha][Sar][hPhe(3-Cl-4-CF3)]P[Ac5c][NMeGly(cPr)][NMeD]-Piperidide; lactam N-11) | > 500 nM
CC[C@H](C)[C@@H]1NC(=O)[C@H](C)N(C)C(=O)C[C@@H](C(=O)N2CCCC2)N(C)C(=O)[C@H](C2CCCCC2)N(C)C(=O)C2(CCCC2)NC(=O)[C@H](Cc2cccnc2)N(C)C(=O)[C@H](CCc2ccc(C(F)(F)F)c(Cl)c2)NC(=O)CN(C)C(=O)[C@H](CC2CCCCC2)N(C)C(=O)[C@@H]2CCN2C(=O)CN(C)C1=O [Compound 1810] ([NMeA]I[Sar][Aze][NMeCha][Sar][hPhe(3-Cl-4-CF3)][NMe3Pal][Ac5c][NMeChg][NMeD]-Pyrrolidide; lactam N-11) | > 500 nM
CC[C@H](C)[C@@H]1NC(=O)[C@H](CC(C)C)N(C)C(=O)C[C@@H](C(=O)N(C)C)N(C)C(=O)[C@H]([C@@H](C)CC)N(C)C(=O)[C@H](C)NC(=O)[C@H](C)N(C)C(=O)[C@H](CCc2ccc(C(F)(F)F)c(Cl)c2)NC(=O)CN(C)C(=O)[C@H](Cc2ccc(C)cc2)N(C)C(=O)[C@@H]2CCN2C(=O)[C@H](C)N(C)C1=O [Compound 715] ([NMeL]I[NMeA][Aze][NMePhe(4-Me)][Sar][hPhe(3-Cl-4-CF3)][NMeA]A[NMeI][NMeD]-NMe2; lactam N-11) | > 500 nM
C#CC[C@@H]1NC(=O)[C@H](CC(C)C)N(C)C(=O)C[C@@H](C)NC(=O)[C@H](CC(C)C)N(C)C(=O)C2(CCCC2)NC(=O)[C@@H]2CCCN2C(=O)[C@H](CCc2ccc(C(F)(F)F)c(F)c2)NC(=O)CN(C)C(=O)[C@H](CC2CCCCC2)N(C)C(=O)CN(C)C(=O)CN(C)C1=O [Compound 1533] (cyclo([Ac5c][NMeL][d(β3hA)][NMeL][Pra][Sar][Sar][NMeCha][Sar][hPhe(3-F,4-CF3)]P)) | > 500 nM
CCC[C@H]1C(=O)N[C@@H]([C@@H](C)CC)C(=O)N(C)CC(=O)N(C)CC(=O)N(C)[C@@H](Cc2ccc(C)cc2)C(=O)N(C)CC(=O)N[C@@H](CCc2ccc(C(F)(F)F)c(Cl)c2)C(=O)N2CC(F)(F)C[C@H]2C(=O)NC2(CCCC2)C(=O)N(C)[C@@H](C2CCCCC2)C(=O)N(C)[C@H](C(=O)N2CCCC2)CC(=O)N1C [Compound 1296] ([NMeNva]I[Sar][Sar][NMePhe(4-Me)][Sar][hPhe(3-Cl-4-CF3)][Pro(4,4-F2)][Ac5c][NMeChg][NMeD]-Pyrrolidide; lactam N-11) | ≤ 20 nM
CC[C@H](C)[C@@H]1NC(=O)[C@H](CC(C)C)N(C)C(=O)C[C@@H](C)NC(=O)[C@H](CC(C)C)N(C)C(=O)C2(CCCC2)NC(=O)[C@@H]2CCCN2C(=O)[C@H](CCc2ccc(C(F)(F)F)c(F)c2)NC(=O)CN(C)C(=O)[C@H](CC2CCCCC2)N(C)C(=O)CN(C)C(=O)CN(C)C1=O [Compound 402] (cyclo([Ac5c][NMeL][d(β3hA)][NMeL]I[Sar][Sar][NMeCha][Sar][hPhe(3-F,4-CF3)]P)) | > 500 nM
CC[C@H](C)[C@@H]1NC(=O)[C@H](CC(C)C)N(C)C(=O)C[C@@H](C)NC(=O)[C@H](C(C)C)N(C)C(=O)C2(CCCC2)NC(=O)[C@@H]2CCCN2C(=O)[C@H](CCc2ccc(C(F)(F)F)c(F)c2)NC(=O)CN(C)C(=O)[C@H](CC2CCCCC2)N(C)C(=O)CN(C)C(=O)CN(C)C1=O [Compound 1534] (cyclo([Ac5c][NMeV][d(β3hA)][NMeL]I[Sar][Sar][NMeCha][Sar][hPhe(3-F,4-CF3)]P)) | > 500 nM
CC[C@H](C)[C@@H]1NC(=O)[C@H](CC(C)C)N(C)C(=O)C[C@@H](C)NC(=O)[C@H](C(C)C)N(C)C(=O)[C@](C)(CC)NC(=O)[C@@H]2CCCN2C(=O)[C@H](CCc2ccc(C(F)(F)F)c(Cl)c2)NC(=O)CN(C)C(=O)[C@H](CC2CCCCC2)N(C)C(=O)CN(C)C(=O)CN(C)C1=O [Compound 149] (cyclo(I[Sar][Sar][NMeCha][Sar][hPhe(3-Cl-4-CF3)]P[Iva][NMeV][d(β3hA)][NMeL])) | > 500 nM
C#CC[C@@H]1NC(=O)[C@H](Cc2cccc(I)c2)NC(=O)CN(C)C(=O)[C@H](Cc2ccc(OC)cc2)N(C)C(=O)[C@@H]2CCN2C(=O)CN(C)C(=O)[C@H]([C@@H](C)CC)NC(=O)[C@H](CC(C)C)N(C)C(=O)C[C@@H](C(=O)N2CCCCC2)N(C)C(=O)[C@H](CC(C)C)NC(=O)C(C)(C)N(C)C1=O [Compound 1246] ([NMeL]I[Sar][Aze][NMeY](Me)[Sar][Phe(3-I)][Pra][NMeAib]L[NMeD]-Piperidide; lactam N-11) | > 500 nM
CC(C)C[C@H]1C(=O)N[C@@H](COCC(F)(F)F)C(=O)N(C)CC(=O)N(C)CC(=O)N(C)[C@@H](CC2CCCCC2)C(=O)N(C)CC(=O)N[C@@H](CCc2ccc(C(F)(F)F)c(Cl)c2)C(=O)N2CCC[C@H]2C(=O)NC2(CCCC2)C(=O)N(C)[C@@H](C2CCCCC2)C(=O)N(C)[C@H](C(=O)N2CCCCC2)CC(=O)N1C [Compound 894] ([NMeL]S(Trifluoroethyl)[Sar][Sar][NMeCha][Sar][hPhe(3-Cl-4-CF3)]P[Ac5c][NMeChg][NMeD]-Piperidide; lactam N-11) | > 500 nM
CCCC[C@@H]1NC(=O)[C@H](Cc2cccc(I)c2)NC(=O)CN(C)C(=O)[C@H](Cc2ccc(Cl)cc2)N(C)C(=O)CN(C)C(=O)CN(C)C(=O)[C@H]([C@@H](C)CC)NC(=O)[C@H](CC(C)C)N(C)C(=O)C[C@@H](C(=O)N2CCCCC2)N(C)C(=O)[C@H](CC(C)C)NC(=O)[C@H](Cc2cccc(Cl)c2)N(C)C1=O [Compound 1044] ([NMeL]I[Sar][Sar][NMePhe(4-Cl)][Sar][Phe(3-I)][Nle][NMePhe(3-Cl)]L[NMeD]-Piperidide; lactam N-11) | > 500 nM
C#CC[C@@H]1NC(=O)[C@H](Cc2cccc(I)c2)NC(=O)CN(C)C(=O)[C@H](Cc2ccc(OC)cc2)N(C)C(=O)[C@@H]2CCN2C(=O)[C@H](C)N(C)C(=O)[C@H]([C@@H](C)CC)NC(=O)[C@H](CC(C)C)N(C)C(=O)C[C@@H](C(=O)N2CCCCC2)N(C)C(=O)[C@H](CC(C)C)NC(=O)C(C)(C)N(C)C1=O [Compound 1350] ([NMeL]I[NMeA][Aze][NMeY](Me)[Sar][Phe(3-I)][Pra][NMeAib]L[NMeD]-Piperidide; lactam N-11) | > 500 nM
